The record followed here is PubChem BioAssay AID1996.

Structures are written as SMILES. ≈ marks a conversion by molar mass, not a printed value.

A word on the kinetic solubility: it is the concentration staying in solution when a stock, usually in DMSO, is diluted into the medium.

The conditions of the data set: buffer; pH 7.4; 200.0 µM.
Consider `Cc1cccc(CC(=O)c2c[nH]c3ccccc23)c1`, for which the kinetic solubility came to 0.9 µg/mL (≈ 3.61 µM). Under `COc1cc(-c2c(C#N)c(N)nc3[nH]c(=S)[nH]c(=O)c23)ccc1O` stands 11.7 µg/mL (≈ 34.3 µM); under `Cc1ccc(C(=O)NCCCNC(=O)c2ccccc2C)cn1`, above 46.7 µg/mL. Under `N#Cc1ccc(C(=O)N(Cc2ccccc2)c2ccccc2)cc1` stands 26.4 µg/mL (≈ 84.5 µM); under `O=C(CNS(=O)(=O)c1cccc(C(F)(F)F)c1)NC1CCCCCC1`, 48.7 µg/mL (≈ 129 µM). Under `CC(=O)Nc1ccc(S(=O)(=O)NC2CC2)cc1` stands 37.6 µg/mL (≈ 148 µM). As to `CC(O)CNCCOc1cccc(Oc2ccccc2)c1.O=C(O)C(=O)O` (configuration not stated), the solubility (kinetic) stood at 45.6 µg/mL.

`CCCN(CC1CC1)C(=S)Nc1ccc(C(C)=O)cc1` showed a kinetic solubility above 43.6 µg/mL.

For the molecule `CN(C)C(=O)c1cc(C(=O)c2ccccc2F)c[nH]1`, the solubility (kinetic) was 38.9 µg/mL (≈ 149 µM). Under `COCC(C)Nc1ccc(S(=O)(=O)N2CCCC2)cc1[N+](=O)[O-]` (configuration not stated) stands 44.2 µg/mL (≈ 129 µM); under `CCO/N=C/C1=C(O)C(C(=O)OC)C(C)(C)CC1=O` (configuration not stated), above 40.4 µg/mL; under `CCn1c(C)cc(C(=O)COC(=O)c2cccnc2SC)c1C`, 3.7 µg/mL (≈ 11.1 µM). Under `CC(CCc1ccccc1)NS(=O)(=O)c1ccccc1Cl` (configuration not stated) stands 20 µg/mL (≈ 61.8 µM); under `COC(=O)c1ccc(NC(=O)C2C3C=CC(C3)C2C(=O)O)cc1` (configuration not stated), above 47.3 µg/mL. Under `Cc1c(NC(=O)CSCc2ccc(Cl)cc2Cl)cccc1C(=O)O` stands above 57.6 µg/mL; under `COc1ccc(CC(=O)Nc2cc(Cl)ccc2C(=O)O)cc1`, above 48 µg/mL.

Molecule `Cn1c(N)c(C(=O)COC(=O)c2ccc(C(F)(F)F)cc2)c(=O)n(C)c1=O` returned a solubility (kinetic) of 15.2 µg/mL (≈ 39.4 µM). Under `NC(=O)C1CCN(CC(=O)NC(=O)NC2CCCC2)CC1` stands above 44.5 µg/mL; under `C=CCn1c([O-])c(C(C)=O)c(=O)[nH]c1=O.C[NH+](C)C`, above 40.4 µg/mL; under `CCOC(=O)NC(=O)CSc1nc2ccc([N+](=O)[O-])cc2[nH]1`, 22 µg/mL (≈ 67.8 µM). To `Fc1ccc(-c2csc(-c3ccccn3)n2)cc1F` belongs below 0.3 µg/mL; to `COc1cc(C(=O)Nc2cccc(NC(=O)c3cccs3)c2)cc(OC)c1OC`, 13.5 µg/mL (≈ 32.7 µM). In turn, `COc1ccc(OCCN(C)CC(=O)Nc2ccccc2SC)cc1` returned a solubility (kinetic) of 21.2 µg/mL (≈ 58.8 µM).

For the molecule `CS(=O)(=O)c1ccc(C(=O)NC2CCCc3ccccc32)cc1` (configuration not stated), the kinetic solubility was 35.2 µg/mL (≈ 107 µM).

Take `CCCc1nc(-c2cc3cc(C)ccc3[nH]c2=O)no1`: the kinetic solubility was 15 µg/mL (≈ 55.7 µM). Molecule `CCOc1ccc(C(=O)CCN2CCOCC2)cc1.Cl` registered a solubility (kinetic) of 44.9 µg/mL.

`COC(=O)c1cccc(NC(=O)CCNC(=O)c2ccco2)c1` came in with a kinetic solubility above 47.4 µg/mL. Under `COC(=O)c1ccccc1NC(=O)c1cc[n+]([O-])cc1` stands 36.2 µg/mL (≈ 133 µM); under `CCn1cc(CN2CCN(C)C(CCO)C2)c2ccccc21` (configuration not stated), 45 µg/mL (≈ 149 µM). Under `O=C(CN1CCCCC1)NC(=O)NC1CCCCC1` stands above 40.1 µg/mL; under `CC(C)(C)N1CSC(=S)N(Cc2ccccc2)C1`, 16.4 µg/mL (≈ 58.5 µM); under `Cc1ccc(NC2=NC(c3ccc(F)cc3)n3c(nc(C)cc3=O)N2)cc1` (configuration not stated), 5 µg/mL (≈ 13.8 µM). Under `CC(C)(C)C(=O)O/N=C1\CCS(=O)(=O)c2sccc21` stands 36.5 µg/mL (≈ 121 µM); under `Cc1cc(C(=O)NCc2ccco2)sc1C`, above 35.3 µg/mL.

As to `COc1cc(/C=C2\SC(N3CCC(C)CC3)=NC2=O)ccc1O`, the kinetic solubility was above 49.9 µg/mL.

As for `CN(Cc1ccccc1)C(=O)COC(=O)Cc1ccc(Cl)cc1`, the solubility (kinetic) amounted to 46.3 µg/mL (≈ 140 µM).

`CC1(CCc2ccccc2)NC(=O)N(CC(=O)Nc2ccc(OC(F)F)cc2)C1=O` (configuration not stated) returned a solubility (kinetic) of 11.4 µg/mL (≈ 27.3 µM). `CN(C)C(=S)Nc1nc2ccccc2s1` had a kinetic solubility of 5.4 µg/mL (≈ 22.8 µM). To `CCNC(=O)C(=O)c1c(-c2ccccc2)[nH]c2ccccc12` belongs above 43.9 µg/mL; to `CCCCCCC(=O)OCC(=O)c1ccc2c(c1)NC(=O)CO2`, 10.8 µg/mL (≈ 33.8 µM); to `Cc1ccc(C2(C)NC(=O)N(CC(=O)N3CCN(S(=O)(=O)c4cccc([N+](=O)[O-])c4)CC3)C2=O)cc1` (configuration not stated), 12.7 µg/mL (≈ 24.6 µM). The molecule `Cc1ccc2c(c1)C(=O)C(=O)N2CC1COc2ccccc2O1` (configuration not stated) displayed a solubility (kinetic) of 19.5 µg/mL (≈ 63 µM). To `CCCC(=NC(C)CC)C1=C(O)CC(c2ccccc2)CC1=O` (configuration not stated) belongs 39 µg/mL (≈ 124 µM). To `NC(=O)COn1c(SCC(N)=O)nc2ccccc2c1=O` belongs above 46.2 µg/mL. Under `O=C(NCc1cccc(C(F)(F)F)c1)c1ccc[nH]1` stands above 40.2 µg/mL. Molecule `Cc1ccnc(NC2(C(F)(F)F)N=C3SCCN3C2=O)c1` (configuration not stated) registered a kinetic solubility above 47.4 µg/mL. To `O=C(CSc1nncs1)NC(=O)NC1CCCC1` belongs above 43 µg/mL. Under `Cc1onc(-c2ccccc2)c1CNC(=O)Nc1ccc(F)cc1F` stands 4.1 µg/mL (≈ 11.9 µM); under `CN(C)/C(=N\S(=O)(=O)c1ccccc1)c1ccc(F)cc1`, above 46 µg/mL.

In the case of `Cc1nc2ccccn2c1C(=O)NNC(=O)Nc1cccc(C(F)(F)F)c1`, the kinetic solubility was above 56.6 µg/mL. Under `COC(CSc1ncnc2c1oc1nc3c(cc12)COC(C)(C)C3)OC` stands 54.6 µg/mL (≈ 145 µM). To `N#Cc1cncc(C#Cc2ccccc2)c1` belongs 5.6 µg/mL (≈ 27.4 µM); to `Cc1ccccc1CC1CCN(CCCNC(=O)Nc2ccccc2)CC1`, 39.9 µg/mL (≈ 109 µM). With `CC(C)C(=O)NC(=O)COC(=O)/C=C/c1cccs1`, the solubility (kinetic) came out at 21.6 µg/mL (≈ 76.8 µM).

The molecule `CC(=O)Nc1ccc(S(=O)(=O)N2CCCC2)cc1` showed a kinetic solubility above 40.2 µg/mL.

The molecule `COc1cc(SC)ccc1C(=O)Nc1ccccn1` came in with a solubility (kinetic) of 9 µg/mL (≈ 32.8 µM).

`Cc1cccc(NC(=O)c2cc(-c3ccccn3)nc3ccccc23)c1C` displayed a kinetic solubility of 3.5 µg/mL (≈ 9.9 µM). Under `Cc1nc(-c2cc(-c3nc(-c4ccc(C(C)(C)C)cc4)no3)no2)cs1` stands below 0.2 µg/mL; under `O=C(O)/C=C/c1ccc(S(=O)(=O)Nc2ccc3[nH]c(=O)[nH]c3c2)cc1`, above 53.9 µg/mL. To `COc1ccc2[nH]c(C(=O)Nc3ncc(C)cc3Br)cc2c1` belongs 6.1 µg/mL (≈ 16.9 µM); to `C#CCOc1c(Cl)cc(/C=C2/C(=O)ON=C2C)cc1OC`, 43.5 µg/mL (≈ 142 µM); to `CC1CCCCC1NC(=O)c1ccc(-n2cncn2)cc1` (configuration not stated), above 42.7 µg/mL.

The molecule `CCNC(=S)NNC(=O)c1nn(C)c(C)c1Cl` gave a kinetic solubility above 41.4 µg/mL. Under `CC(=O)N1c2ccccc2Sc2ccccc21` stands 26.4 µg/mL (≈ 109 µM); under `COc1ccccc1OCCn1c(=S)[nH]c2ccccc21`, 1.4 µg/mL (≈ 4.66 µM); under `Cc1ccc(OCc2nc(-c3ccccc3)no2)cc1`, 0.4 µg/mL (≈ 1.5 µM). To `COc1ccc(Cl)cc1C(=O)NC1=NCCS1` belongs 38.6 µg/mL (≈ 143 µM); to `COc1ccccc1N1CCN(C(=O)c2cc(S(=O)(=O)N3CCCCC3)ccc2C)CC1.Cl`, 68.1 µg/mL. To `COc1ccc(S(=O)(=O)N2CCOCC2)cc1NC(=O)COc1ccc(C)cc1` belongs 28.4 µg/mL (≈ 67.5 µM); to `CCCOc1ccc(-c2c(=O)n(O)c3ccccc3[n+]2[O-])cc1`, above 46.8 µg/mL. Molecule `Cc1[nH]c2ccc(C(=O)NCCCN3CCOCC3)cc2c1C` showed a kinetic solubility above 47.3 µg/mL. `Cc1ccc(N=CNc2ccc(C)cc2C)c(C)c1` had a kinetic solubility of 35.2 µg/mL (≈ 139 µM). `COC(=O)C1=C(Nc2cc(Cl)cc(Cl)c2)CSC1`: the kinetic solubility is below 0.7 µg/mL. Under `S=C(Nc1cccnc1)N1CCc2ccccc21` stands above 38.3 µg/mL; under `CCOC(=O)c1cnc2c(F)ccc(F)c2c1Sc1ccccc1`, 5.7 µg/mL (≈ 16.5 µM). Under `CCCCNC(=O)c1cc2cc(OC)ccc2[nH]1` stands 15.4 µg/mL (≈ 62.5 µM); under `Cc1cccc(N2CCN(CC(=O)NCc3ccc(Cl)cc3)CC2)c1C`, 1.6 µg/mL (≈ 4.3 µM); under `CCOC(=O)c1cc(Sc2ccccc2N)cc(C(=O)OCC)n1`, below 0.4 µg/mL. To `CC1C(=O)N2CCCc3cc(NS(C)(=O)=O)cc1c32` (configuration not stated) belongs 40.3 µg/mL (≈ 144 µM); to `CC1CCC(NC(=O)C2CC(=O)N(c3ccc(Cl)cc3)C2)CC1` (configuration not stated), 2.3 µg/mL (≈ 6.87 µM); to `CN(CC(=O)NC1CCCC1)S(=O)(=O)c1cnc[nH]1`, above 43 µg/mL.

`CC(=O)Nc1ccc(NC(=O)C(C)OC(=O)C2CCCC2)cc1` (configuration not stated) had a solubility (kinetic) above 47.8 µg/mL. In turn, `Cc1ccn2c(C=O)c(-c3ccc(F)cc3)c(C=O)c2c1` had a kinetic solubility of 8.5 µg/mL (≈ 30.2 µM). Under `COc1ccc(S(N)(=O)=O)cc1C(=O)OCC(=O)Nc1ncc(Cl)c(C)c1Cl` stands 24 µg/mL (≈ 53.5 µM); under `O=C(Nc1ccccc1)N1CCCN(c2c(Cl)cncc2Cl)CC1`, 10.9 µg/mL (≈ 29.8 µM); under `COc1ccc(-c2csc(NC(=O)CN3C(=O)CCC3=O)n2)cc1`, 11.7 µg/mL (≈ 33.9 µM). Under `O=C(CCc1ccccc1)N1CCN(c2ccccc2F)CC1` stands 45.7 µg/mL (≈ 146 µM). Under `Cc1cccc(C(=O)NCC(=O)OCC(=O)N2CCCCC2)c1` stands 46 µg/mL (≈ 144 µM).

`CC(C(=O)OCC(=O)Nc1ccc(S(N)(=O)=O)cc1)N1C(=O)c2ccccc2C1=O` (configuration not stated) yielded a kinetic solubility above 64.7 µg/mL.

As to `CCOc1nc(C)ccc1-c1noc(-c2cccnc2)n1`, the solubility (kinetic) came out at 11 µg/mL (≈ 39 µM). To `CC1CN(C)C(C)C/C1=N/Oc1ccccc1[N+](=O)[O-].Cl` (configuration not stated) belongs 46.2 µg/mL. Under `CC(C)(C)OC(=O)NCCC(=O)N/N=C/c1cccc2cccnc12` stands above 51.4 µg/mL; under `O=S(=O)(Nc1cccc(S(=O)(=O)N2CCCCC2)c1)c1ccc(Cl)s1`, above 63.1 µg/mL. To `CC(=O)c1ccc(NC(=O)C2CCCO2)cc1` (configuration not stated) belongs above 35 µg/mL. `Cc1cc(C)cc(C(=O)NCCCN2CCOCC2)c1`: the kinetic solubility was above 41.5 µg/mL. To `Cc1cccc(NC(=O)c2nc[nH]c2C(=O)Nc2cccc(C)c2)c1` belongs 0.2 µg/mL (≈ 0.598 µM); to `Cn1cc(C=C2C(=O)OC3(CCCCC3)OC2=O)c2ccccc21`, below 0.7 µg/mL; to `CC1Cc2ccccc2N1CC(=O)NC(=O)NC1CCCCC1` (configuration not stated), 24.6 µg/mL (≈ 78 µM).

Molecule `CCc1ccc(N2CC(C(=O)OCC(=O)NC3CC3)CC2=O)cc1` (configuration not stated) showed a solubility (kinetic) above 49.6 µg/mL. Take `O=C1c2ccccc2C(=O)N1CCOc1ccccc1Cl`: the kinetic solubility worked out at 3.5 µg/mL (≈ 11.6 µM). Under `Cc1ccc(C(=O)Nc2nccs2)s1` stands 9.6 µg/mL (≈ 42.8 µM); under `Cc1ccc(CN2CCN(C3CCOCC3)CC2CCO)cc1` (configuration not stated), above 47.8 µg/mL.
